SMILES strings stand for the structures. Where only a bound is given, the exact number is not on record here.

For series [1] the following is noted: from CC(Oc1cc(Br)cnc1N)c1cc(F)ccc1-n1nccc1Cc1cc(C#N)n(C)n1; cc_pd bond; 12-membered ring; Pd(OAc)2/cataCXium A/KOAc; 2-methyl-2-butanol; 20.0 mM; 120.0 °C.
The target of series [2] is T1, TRKA-wt kinase domain (Homo sapiens, UniProt P04629).
T1 construct: TRKA-wt (1 nM, BPS Bio, 40280) kinase domains in buffer; purchased BPS Bio 40280
Description: Biochemical kinase assay, TRKA-wt. The conditions noted are these: 2 mM ATP substrate solution, read-out: Ki^app TRKA-wt. In short, it runs like this: (§1)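 Kinase domains (in kinase solution: ROS1-G2032R 0.5 nM, ROS1-wt 0.6 nM, TRKA 1 nM, ALK L1196M/G1202R 3 nM) were mixed with compound and a substrate solution of 2 mM ATP plus 26 μM fluorogenic AQT0101 (ALK, ROS1) or AQT0104 (TRKA) in HEPES pH 7.5/MgCl2. Fluorescence was followed for 120 min at 30° C; Ki^app was obtained by Morrison fit of initial rates.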

Series [3] has as its target T2, ALK L1196M/G1202R kinase domain (Homo sapiens, UniProt Q9UM73, G1202R/L1196M).
T2 construct: TRKA-wt (1 nM, BPS Bio, 40280) kinase domains in buffer; purchased SignalChem A19-12NG
Kind of series: Biochemical kinase assay, ALK L1196M/G1202R. To be noted: 2 mM ATP substrate solution, read-out: Ki^app ALK-L1196M-G1202R. In short, it runs like this: as §1

Series [4] deals with T3, ROS1-wt kinase domain (Homo sapiens, UniProt P08922).
T3 construct: TRKA-wt (1 nM, BPS Bio, 40280) kinase domains in buffer; purchased Carna 08-163
Kind of series: Biochemical kinase assay, ROS1-wt. The conditions noted are these: 2 mM ATP substrate solution, read-out: Ki^app ROS1-wt. In short, it runs like this: as §1

In series [5] the target is T4, ALK-wt kinase domain (Homo sapiens, UniProt Q9UM73).
T4 construct: TRKA-wt (1 nM, BPS Bio, 40280) kinase domains in buffer; purchased Carna 08-518
Kind of series: Biochemical kinase assay, ALK-wt. The conditions noted are these: 2 mM ATP substrate solution, read-out: Ki^app ALK-wt. In short, it runs like this: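 Apparent Ki values come from fitting initial reaction rates against inhibitor concentration to the Morrison equation. Rates were taken from the linear phase of fluorogenic substrate phosphorylation (AQT0101 for ALK and ROS1, AQT0104 for TRKA; 26 μM in substrate solution with 2 mM ATP), monitored at 485 nm over 120 min at 30° C.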

For series [6], the target named is T5, ROS1-G2032R kinase domain (Homo sapiens, UniProt P08922, G2032R).
T5 construct: TRKA-wt (1 nM, BPS Bio, 40280) kinase domains in buffer; purchased SignalChem R14-12BG
Kind of series: Biochemical kinase assay, ROS1-G2032R. The conditions noted are these: 2 mM ATP substrate solution, read-out: Ki^app ROS1-G2032R. In short, it runs like this:
as §1

In turn, `CC1Oc2cc(cnc2N)-c2c(nn(C)c2C#N)Cc2ccnn2-c2ccc(F)cc21` (stereo not shown) had a ring closure, yield after HPLC in series [1] of 17%.
As to `CCn1nc(C(C)C)c2c1-c1cnc(N)c(c1)O[C@H](C)c1cc(F)ccc1-c1nn(C)cc1C2` [Compound 153], the Ki in series [2], in series [3], in series [4], in series [5] and in series [6] was less than 50 nM each time.
Consider `CC(C)Cn1ncc2c1-c1cnc(N)c(c1)O[C@H](C)c1cc(F)ccc1-c1nn(C)cc1C2` [Compound 154], for which the Ki in series [2] was greater than 500 nM; in series [3], less than 50 nM; in series [4] it was less than 50 nM; in series [5], less than 50 nM; in series [6], less than 50 nM.
For `CCc1nsc2c1-c1cnc(N)c(c1)O[C@H](C)c1cc(F)ccc1-c1nn(C)cc1C2` [Compound 155], the Ki in series [2], in series [3], in series [4], in series [5] and in series [6] was less than 50 nM each time.
As for `CCn1nc(C#N)c2c1-c1cnc(N)c(c1)O[C@H](C)c1cc(F)ccc1-c1nn(C)cc1C2` [Compound 156], the Ki in series [2] was 50 to 500 nM; in series [3], less than 50 nM; in series [4] it was less than 50 nM; in series [5], less than 50 nM; in series [6] it was less than 50 nM.
For `CCn1ncc2c1-c1cnc(N)c(c1)O[C@H](C)c1cc(F)ccc1-c1nn(C)c(OC)c1C2` [Compound 157], the Ki in series [2], in series [3], in series [4], in series [5] and in series [6] was less than 50 nM in each case.
Consider `CCc1nn(CC)c2c1Cc1cn(C)nc1-c1ccc(F)cc1[C@@H](C)Oc1cc-2cnc1N` [Compound 158], for which the Ki in series [2], in series [3], in series [4], in series [5] and in series [6] was less than 50 nM in each case.
On to `C[C@H]1Oc2cc(cnc2N)-c2c(cnn2CC2CC2)Cc2cn(C(F)F)nc2-c2ccc(F)cc21` [Compound 160], for which the Ki was greater than 500 nM in series [2]; less than 50 nM in series [3]; less than 50 nM in series [4]; less than 50 nM in series [5]; less than 50 nM in series [6].
As to `CCc1noc2c1-c1cnc(N)c(n1)O[C@H](C)c1cc(F)ccc1-c1nn(C)cc1C2` [Compound 162], the Ki in series [2], in series [3], in series [4], in series [5] and in series [6] was less than 50 nM each time.
`CCn1ncc2c1-c1cnc(N)c(n1)OC(C)c1cc(F)ccc1-c1nccn1C2` (stereo not shown) [Compound 163]: the Ki was 50 to 500 nM in series [2]; less than 50 nM in series [3]; less than 50 nM in series [4]; less than 50 nM in series [5]; less than 50 nM in series [6].
Turning to `CCn1ncc2c1-c1cnc(N)c(n1)OC(C)c1cc(F)ccc1-c1c(cnn1C)C2` (stereo not shown) [Compound 164], the Ki is greater than 500 nM in series [2]; 50 to 500 nM in series [3]; less than 50 nM in series [4]; less than 50 nM in series [5]; less than 50 nM in series [6].
As to `CCn1ncc2c1-c1ccc(F)cc1C(C)Oc1nc(cnc1N)-c1c(cnn1C)C2` (stereo not shown) [Compound 165], the Ki in series [2] is 50 to 500 nM; in series [3], 50 to 500 nM; in series [4], less than 50 nM; in series [5] it was less than 50 nM; in series [6] it was 50 to 500 nM.
Take `CCn1ncc2c1-c1cnc(N)c(c1)OC(CO)c1cc(F)ccc1-c1nccn1C2` (stereo not shown) [Compound 166]: the Ki in series [2] is greater than 500 nM; in series [3], 50 to 500 nM; in series [4] it was less than 50 nM; in series [5] it was less than 50 nM; in series [6] it was 50 to 500 nM.
Turning to `CC1Oc2cc(cnc2N)-c2c(C#N)ncn2Cc2cnn(C)c2-c2ccc(F)cc21` (stereo not shown) [Compound 167], the Ki in series [2] is greater than 500 nM; in series [3] it was 50 to 500 nM; in series [4], less than 50 nM; in series [5], less than 50 nM; in series [6] it was 50 to 500 nM.
In the case of `CC1Oc2cc(cnc2N)-c2c(n[nH]c2C#N)Cc2cnn(C)c2-c2ccc(F)cc21` (stereo not shown) [Compound 168], the Ki was greater than 500 nM in series [2]; less than 50 nM in series [3]; less than 50 nM in series [4]; less than 50 nM in series [5]; less than 50 nM in series [6].
`C[C@H]1Oc2cc(cnc2N)-c2c(nn(C)c2C#N)Cc2ccnn2-c2ccc(F)cc21` [Compound 169]: the Ki in series [2], in series [3], in series [4], in series [5] and in series [6] was less than 50 nM in each case.
As to `CCc1nn(C)c2c1-c1cnc(N)c(c1)O[C@H](C)c1cc(F)ccc1-c1nn(C)cc1C2` [Compound 171], the Ki in series [2], in series [3], in series [4], in series [5] and in series [6] was less than 50 nM throughout.
`C[C@H]1Oc2cc(cnc2N)-c2c(nn(C)c2C2CCC2)Cc2ccnn2-c2ccc(F)cc21` [Compound 174]: the Ki in series [2] was 50 to 500 nM; in series [3] it was less than 50 nM; in series [4], less than 50 nM; in series [5], less than 50 nM; in series [6], less than 50 nM.
In the case of `CCc1nn(C)c2c1-c1cnc(N)c(c1)OCc1cc(F)ccc1-c1nc(C)sc1C2` [Compound 175], the Ki in series [2] was 50 to 500 nM; in series [3] it was less than 50 nM; in series [4], less than 50 nM; in series [5], less than 50 nM; in series [6] it was less than 50 nM.
On to `CCc1nn(C)c2c1-c1cnc(N)c(c1)OCc1cc(F)ccc1-c1nn(C)cc1C2` [Compound 176], for which the Ki in series [2] was greater than 500 nM; in series [3] it was less than 50 nM; in series [4] it was less than 50 nM; in series [5] it was less than 50 nM; in series [6], 50 to 500 nM.
As for `C[C@H]1Oc2cc(cnc2N)-c2c(nn(C)c2CC2CC2)Cc2ccnn2-c2ccc(F)cc21` [Compound 177], the Ki in series [2] was 50 to 500 nM; in series [3] it was less than 50 nM; in series [4] it was less than 50 nM; in series [5] it was less than 50 nM; in series [6] it was less than 50 nM.
With `C[C@H]1Oc2cc(cnc2N)-c2c(CC3CC3)nn(C)c2Cc2cn(C)nc2-c2ccc(F)cc21` [Compound 178], the Ki in series [2] is 50 to 500 nM; in series [3], less than 50 nM; in series [4], less than 50 nM; in series [5] it was less than 50 nM; in series [6] it was less than 50 nM.
Turning to `C[C@H]1Oc2cc(cnc2N)-c2c(nn(C)c2CC2CC2)Cc2cn(C)nc2-c2ccc(F)cc21` [Compound 179], the Ki in series [2] is 50 to 500 nM; in series [3], less than 50 nM; in series [4] it was less than 50 nM; in series [5], less than 50 nM; in series [6] it was less than 50 nM.
Regarding `C[C@H]1Oc2cc(cnc2N)-c2c(CC(F)F)nn(C)c2Cc2cc(C(F)F)nn2-c2ccc(F)cc21` [Compound 180], the Ki in series [2] is 50 to 500 nM; in series [3], less than 50 nM; in series [4] it was less than 50 nM; in series [5], less than 50 nM; in series [6] it was less than 50 nM.
As for `CCn1nc(OC)c2c1-c1cnc(N)c(c1)O[C@H](C)c1cc(F)ccc1-c1nn(C)cc1C2` [Compound 181], the Ki is 50 to 500 nM in series [2]; less than 50 nM in series [3]; less than 50 nM in series [4]; less than 50 nM in series [5]; less than 50 nM in series [6].

The values above are taken from patent US11667649B2, “Heteroaromatic macrocyclic ether chemotherapeutic agents” (Nuvalent, Inc., priority 2020, dated 2023).
